Assay results as given in US20230059136A1, “THE COMPOUNDS AND COMPOSITIONS FOR TREATING CONDITIONS ASSOCIATED WITH NLRP ACTIVITY” (Novartis AG, priority 2018, published 2023).
Read-outs that look alike come from different tables or passages of the source. Each block holds one compound with its values, some of them ahead of it.

System: IL-1β production in PMA-differentiated THP-1 cells
Assay: IL-1β production in PMA-differentiated THP-1 cells stimulated with gramicidin (hTHP-1 assay containing 2% fetal bovine serum)
Assay type: cell-based, human
Conditions: 2% fetal bovine serum, read-out: hTHP-1 IC50 (Average IC50 of compounds in hTHP-1 assay)
In short: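 IL-1β release was read by HTRF on supernatants of 50,000 PMA-primed (20 ng/ml, 16-18 h) THP-1 cells/well in 2% FBS medium. Cells saw compound for 1 h (11-point titration from 100 μM, 0.37% DMSO) before a 2 h gramicidin (5 μM) challenge.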

[1] = Homo sapiens, THP-1, Table B1, class symbols
[2] = Homo sapiens, THP-1, Table B2, class symbols

IC50 (Table B1, class symbols): 0.2 to 1 µM
SMILES: COCc1cc(C(C)C)c(CC(=O)N=S(N)(=O)c2sc(C(C)(C)O)nc2CO)c(C(C)C)c1 (centres unmarked) [Example 24, 2-(2,6-diisopropyl-4-(methoxymethyl)phenyl)-N-(4-(hydroxymethyl)-2-(2-hydroxypropan-2-yl)thiazole-5-sulfonimidoyl)acetamide]

IC50 [1]: 1 to 5 µM
SMILES: COCc1cc(C(C)C)c(CC(=O)N=S(N)(=O)c2ncc(C(C)(C)O)s2)c(C(C)C)n1 (centres unmarked) [Example 236, N-(amino(5-(2-hydroxypropan-2-yl)thiazol-2-yl)(oxo)-λ^6-sulfaneylidene)-2-(2,4-diisopropyl-6-(methoxymethyl)pyridin-3-yl)acetamide]

IC50 (Table B1, class symbols): 5 to 30 µM
SMILES: COCc1cc(C(C)C)c(CC(=O)N=S(N)(=O)c2sc(C(C)(C)O)nc2CO)c(C(C)C)c1 (single isomer, unassigned) [Example 69, (R)- or (S)-2-(2,6-diisopropyl-4-(methoxymethyl)phenyl)-N-(4-(hydroxymethyl)-2-(2-hydroxypropan-2-yl)thiazol-5-ylsulfonimidoyl)acetamide]

IC50 [2]: 0.2 to 1 µM
SMILES: CC(C)c1cc(C#N)cc(C(C)C)c1CC(=O)N=[S@@](=O)(NC#N)c1nc(CO)c(C(C)(C)O)s1 [Example 376, (R)-N-(cyanamido(4-(hydroxymethyl)-5-(2-hydroxypropan-2-yl)thiazol-2-yl)(oxo)-λ^6-sulfaneylidene)-2-(4-cyano-2,6-diisopropylphenyl)acetamide]

IC50 (Table B1, class symbols): 0.2 to 1 µM
SMILES: Cc1sc(S(N)(=O)=NC(=O)Cc2c(C(C)C)ccc(F)c2C(C)C)cc1C(C)(C)O (single isomer, unassigned) [Example 173, (R) or (S)-N-(amino(4-(2-hydroxypropan-2-yl)-5-methylthiophen-2-yl)(oxo)-λ^6-sulfaneylidene)-2-(3-fluoro-2,6-diisopropylphenyl) acetamide]

IC50 [1]: 0.04 to 0.2 µM
SMILES: CC(C)c1cc(COC2CCCC2)cc(C(C)C)c1CC(=O)N=S(N)(=O)c1cnc(C(C)(C)O)s1 (centres unmarked) [Example 141, N-(amino(2-(2-hydroxypropan-2-yl)thiazol-5-yl)(oxo)-λ^6-sulfaneylidene)-2-(4-((cyclopentyloxy)methyl)-2,6-diisopropylphenyl)acetamide]

IC50 (Table B1, class symbols): 5 to 30 µM
SMILES: CC(C)c1cc(-c2ccc3c(c2)CCOC3)cc(C(C)C)c1CC(=O)N=S(N)(=O)c1sc(C(C)(C)O)nc1CO (single isomer, unassigned) [Example 272, (S) or (R)-N-(amino(4-(hydroxymethyl)-2-(2-hydroxypropan-2-yl)thiazol-5-yl)(oxo)-λ^6-sulfaneylidene)-2-(4-(isochroman-6-yl)-2,6-diisopropylphenyl) acetamide]

IC50 (Table B1, class symbols): 0.2 to 1 µM
SMILES: CC(C)c1cc(C#N)cc(C(C)C)c1CC(=O)N=S(N)(=O)c1sc(C(C)(C)O)nc1CO (single isomer, unassigned) [Example 64, N-(amino(4-(hydroxymethyl)-2-(2-hydroxypropan-2-yl)thiazol-5-yl)(oxo)-λ^6-sulfaneylidene)-2-(4-cyano-2,6-diisopropylphenyl)acetamide]

IC50 (Table B1, class symbols): 5 to 30 µM
SMILES: CC(C)c1cc(C#N)cc(C(C)C)c1CC(=O)N=S(N)(=O)c1ncc(C(C)(C)O)s1 (single isomer, unassigned) [Example 82, (R)- or (S)-2-(4-cyano-2,6-diisopropylphenyl)-N-(5-(2-hydroxypropan-2-yl)thiazol-2-ylsulfonimidoyl)acetamide]

The remaining lines, values behind:

SMILES: CCn1cc(F)c(S(N)(=O)=NC(=O)Cc2c(C(C)C)cc3c(c2C(C)C)COC3)n1 (centres unmarked) [Example 393, N-(amino(1-ethyl-4-fluoro-1H-pyrazol-3-yl)(oxo)-λ^6-sulfaneylidene)-2-(4,6-diisopropyl-1,3-dihydroisobenzofuran-5-yl)acetamide]
IC50 [2]: 1 to 5 µM

SMILES: CC(C)c1ccc(F)c(C(C)C)c1CC(=O)N=[S@@](N)(=O)c1cc(C(C)(C)O)cs1 [compound 88, (R)-N-(amino(4-(2-hydroxypropan-2-yl)thiophen-2-yl)(oxo)-λ^6-sulfanylidene)-2-(3-fluoro-2,6-diisopropylphenyl)acetamide]
IC50 [1]: 0.2 to 1 µM

SMILES: CC(C)c1cc(C(=O)CC2CCCCC2)cc(C(C)C)c1CC(=O)N=S(N)(=O)c1cc(C(C)(C)O)n(-c2ccccc2)n1 (single isomer, unassigned) [Example 286, (S) or (R)-N-(amino (5-(2-hydroxypropan-2-yl)-1-phenyl-1H-pyrazol-3-yl)(oxo)-λ^6-sulfaneylidene)-2-(4-(2-cyclohexylacetyl)-2,6-diisopropylphenyl) acetamide]
IC50 (Homo sapiens, THP-1, Table B1, cells printed as numeric bound): > 30 µM

SMILES: CCc1cc(OC(F)F)cc(C(C)C)c1CC(=O)N=S(N)(=O)c1sc(C(C)(C)O)cc1F (centres unmarked) [Example 36, 2-(4-(difluoromethoxy)-2-ethyl-6-isopropylphenyl)-N-(3-fluoro-5-(2-hydroxypropan-2-yl)thiophene-2-sulfonimidoyl)acetamide]
IC50 (Table B1, class symbols): 0.2 to 1 µM

SMILES: CC(C)c1nc(-c2cccc(C(F)(F)F)c2)c(F)c(C(C)C)c1CC(=O)N=S(N)(=O)c1cnc(C(C)(C)O)s1 (single isomer, unassigned) [Example 202, N-(amino(2-(2-hydroxypropan-2-yl)thiazol-5-yl)(oxo)-λ^6-sulfaneylidene)-2-(5-fluoro-2,4-diisopropyl-6-(3-(trifluoromethyl)phenyl)pyridin-3-yl) acetamide]
IC50 (Table B1, class symbols): 0.2 to 1 µM

SMILES: CC(C)c1cc(-c2ccc3c(c2)OC(F)(F)O3)cc(C(C)C)c1CC(=O)N=S(N)(=O)c1ncc(C(C)(C)O)s1 (single isomer, unassigned) [Example 165, (S) or (R)-N-(amino(5-(2-hydroxypropan-2-yl)thiazol-2-yl)(oxo)-λ^6-sulfaneylidene)-2-(4-(2,2-difluorobenzo[d] [1,3]dioxol-5-yl)-2,6-diisopropylphenyl) acetamide]
IC50 (Table B1, class symbols): 1 to 5 µM

SMILES: CC(C)c1cc(C(F)F)cc(C(C)C)c1CC(=O)N=S(N)(=O)c1ccc(CN(C)C)cc1F (single isomer, unassigned) [Example 214, (R) or (S)-N-(amino(4-((dimethylamino)methyl)-2-fluorophenyl) (oxo)-λ^6-sulfaneylidene)-2-(4-(difluoromethyl)-2,6-diisopropylphenyl) acetamide]
IC50 (Table B1, class symbols): 0.04 to 0.2 µM

SMILES: CC(C)c1cc(Cl)c(F)c(C2CC2)c1CC(=O)N=S(N)(=O)c1sc(C(C)(C)O)cc1F (centres unmarked) [Example 20, 2-(4-chloro-2-cyclopropyl-3-fluoro-6-isopropylphenyl)-N-(3-fluoro-5-(2-hydroxypropan-2-yl)thiophen-2-ylsulfonimidoyl)acetamide]
IC50 (Table B1, class symbols): 0.2 to 1 µM

SMILES: CC(C)c1cc(C(F)F)cc(C(C)C)c1CC(=O)N=S(N)(=O)c1ccc(CN(C)C)cc1 (centres unmarked) [Example 257, N-(amino(4-((dimethylamino)methyl)phenyl) (oxo)-λ^6-sulfaneylidene)-2-(4-(difluoromethyl)-2,6-diisopropylphenyl)acetamide]
IC50 [1]: 1 to 5 µM

SMILES: CNCc1ccc(S(N)(=O)=NC(=O)Cc2c(-c3ccccc3)ccc3c2CCC3)cc1 (racemic) [Example 381, (R) and (S)—N-(amino(4-((methylamino)methyl)phenyl)(oxo)-λ^6-sulfaneylidene)-2-(5-phenyl-2,3-dihydro-1H-inden-4-yl)acetamide]
IC50 [2]: 5 to 30 µM

SMILES: CCc1cc(OC(F)F)cc(C(C)C)c1CC(=O)N=S(N)(=O)c1sc(C(C)(C)O)cc1F (single isomer, unassigned) [Example 78, (S)- or (R)-2-(4-(difluoromethoxy)-2-ethyl-6-isopropylphenyl)-N-(3-fluoro-5-(2-hydroxypropan-2-yl)thiophen-2-ylsulfonimidoyl)acetamide]
IC50 (Table B1, class symbols): 0.2 to 1 µM

SMILES: CC(C)c1cc(-c2ccc(Cl)c(Cl)c2)cc(C(C)C)c1CC(=O)N=S(N)(=O)c1ncc(C(C)(C)O)s1 (single isomer, unassigned) [Example 169, (S) or (R)-N-(amino(5-(2-hydroxypropan-2-yl)thiazol-2-yl)(oxo)-λ^6-sulfaneylidene)-2-(3′,4′-dichloro-3,5-diisopropyl-[1,1′-biphenyl]-4-yl)acetamide]
IC50 (Table B1, class symbols): 1 to 5 µM

SMILES: CC(C)c1cc(C(F)F)cc(C(C)C)c1CC(=O)N=S(N)(=O)c1ncc(CN(C)C)cc1F (centres unmarked) [Example 250]
IC50 [1]: 5 to 30 µM

SMILES: CC(C)c1cc(F)cc(C2CC2)c1CC(=O)N=S(N)(=O)c1sc(C(C)(C)O)cc1F (single isomer, unassigned) [Example 52, (S)- or (R)-2-(2-cyclopropyl-4-fluoro-6-isopropylphenyl)-N-(3-fluoro-5-(2-hydroxypropan-2-yl)thiophen-2-ylsulfonimidoyl)acetamide]
IC50 (Table B1, class symbols): 0.008 to 0.04 µM

SMILES: CC(C)c1cc(C#N)c(F)c(C(C)C)c1CC(=O)N=S(=O)(NC#N)c1cnc(C(O)(CO)CO)s1 (centres unmarked) [Example 360, N-(cyanamido(oxo)(2-(1,2,3-trihydroxypropan-2-yl)thiazol-5-yl)-λ^6-sulfaneylidene)-2-(4-cyano-3-fluoro-2,6-diisopropylphenyl)acetamide]
IC50 [2]: 5 to 30 µM

SMILES: CC(C)c1cc(C#CC2CCOCC2)cc(C(C)C)c1CC(=O)N=S(N)(=O)c1cc(C(C)(C)O)n(-c2ccccc2)n1 (centres unmarked) [Example 229, N-(amino(5-(2-hydroxypropan-2-yl)-1-phenyl-1H-pyrazol-3-yl)(oxo)-λ^6-sulfaneylidene)-2-(2,6-diisopropyl-4-((tetrahydro-2H-pyran-4-yl)ethynyl)phenyl)acetamide]
IC50 [1]: 1 to 5 µM

SMILES: CC(C)c1cc(COC2CCCC2)cc(C(C)C)c1CC(=O)N=S(N)(=O)c1cc(C(C)(C)O)n(-c2ccc(F)cc2)n1 (centres unmarked) [Example 241, N-(amino(1-(4-fluorophenyl)-5-(2-hydroxypropan-2-yl)-1H-pyrazol-3-yl)(oxo)-λ^6-sulfaneylidene)-2-(4-((cyclopentyloxy)methyl)-2,6-diisopropylphenyl)acetamide]
IC50 [1]: 5 to 30 µM
